In brackets after ≈: the same amount, converted by molar mass. Entries after “also recorded” stand apart in the source; their conditions may differ. Structures can show the parent of a compound that is named as a salt. Where two headings read alike, the source gives them in different places. Marks after values point to notes of the source that are not given here.
Legend:
Critical micellar pH = assay type: physicochemical; settings: CMpH=pKa+log CMC/WS
Source text: This value can be experimentally determined by evaluating the pH at which a given BA starts to precipitate from a micellar solution. It can be calculated from the CMC Water solubility of the protonated species and pKa using the formula: CMpH=pKa+log CMC/WS.

bovine serum albumin = molecular target: T1, bovine serum albumin (Bos taurus, UniProt P02769); assay: Albumin binding by equilibrium dialysis; assay type: in vitro ADME; settings: 100 μM BA in 5% bovine serum albumin-saline, 25° C.
T1 construct: 5% bovine serum albumin-saline solution
T1 sequence (P02769 25-607): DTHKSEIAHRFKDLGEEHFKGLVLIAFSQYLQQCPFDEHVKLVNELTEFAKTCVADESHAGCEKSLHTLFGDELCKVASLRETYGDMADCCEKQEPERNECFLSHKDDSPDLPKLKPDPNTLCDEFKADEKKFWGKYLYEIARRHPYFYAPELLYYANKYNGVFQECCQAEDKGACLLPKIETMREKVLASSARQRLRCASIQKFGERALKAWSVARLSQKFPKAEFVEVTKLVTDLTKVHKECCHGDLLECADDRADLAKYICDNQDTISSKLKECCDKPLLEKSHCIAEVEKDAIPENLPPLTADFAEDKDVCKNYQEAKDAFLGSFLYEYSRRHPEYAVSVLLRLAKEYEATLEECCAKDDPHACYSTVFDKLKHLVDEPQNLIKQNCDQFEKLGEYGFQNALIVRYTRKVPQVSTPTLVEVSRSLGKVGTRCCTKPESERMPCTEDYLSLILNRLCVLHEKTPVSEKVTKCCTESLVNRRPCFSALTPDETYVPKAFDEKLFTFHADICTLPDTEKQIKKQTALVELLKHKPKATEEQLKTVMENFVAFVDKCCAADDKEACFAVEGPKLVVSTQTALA
Procedure: Albumin binding was evaluated by equilibrium dialysis at a fixed BA-albumin ratio. BA was dissolved at a concentration of 100 μM in 5% bovine serum albumin-saline solution and left to stand for 24 h at 25° C. Two ml of this solution was dialyzed in cellulose sacs having a molecular weight cut-off of 12-14,000 against 25 ml of saline solution. The system was equilibrated by mechanical shaking for 72 h at 25° C. BA concentrations of the dialyzed solution and of the starting solution were determined with HPLC-ESI-MS/MS in the same conditions of the previous analysis.

[1] = 1-Octanol/water partition coefficient, shake-flask; settings: pH 8, 0.1 mM bile salt
Procedure: (§1) 1-Octanol/water partition coefficient (log P) was evaluated using a conventional shake-flask procedure. […] The aqueous buffer was previously pre-saturated with 1-octanol, 5 ml of 1-octanol pre-saturated with water was then added and the samples were left to equilibrate for 2 weeks under continuous stirring at room temperature After centrifugation the two phases were carefully separated. BA concentration in the water phase was measured with HPLC-ESI-MS/MS using C18 column (150 mm×2 mm i.d., 4 μm) and mobile phases: A: water containing 15 mM acetic acid pH 5, B: acetonitrile. The flow rate was 150 μl/min and the column was maintained at 45° C. The mass spectrometry acquisition was performed in the multiple reaction monitoring mode using the ESI source in negative ionization.

[2] = Critical micellar concentration by surface tension (maximum bubble-pressure); assay type: physicochemical; settings: for CMC NaCl 0.15M: in NaCl 0.15 M; for CMC H2O: in water
Procedure: This value was determined by surface tension measurements using a maximum bubble-pressure method. The tensiometer was a Sensadyne 6000 (Chem-Dyne Research Corp., Milwaukee, Wis.) equipped with two glass probes of 0.5 and 4.0 mm diameters connected to a source of nitrogen. The bubble frequency was 1 bubble/second in distilled water at 26° C. (P=2.7 atm) and the calibration was made with double-distilled water and methanol. The surface tension of BA sodium salts solutions both in water and in NaCl 0.15 M was measured at various concentrations range, 0.2-75 mM and 0.3-100 mM respectively. The surface tension values were plotted against the logarithm of the bile salt concentration; the regression lines corresponding to the two parts of the curve (monomeric and micellar phases) were calculated using the method of least squares, and the intersection of the lines was taken as the CMC value.

[3] = tested on: Intestinal bacteria (human stools cultures); assay: Metabolic stability in human stools culture (7α-dehydroxylation); assay type: in vitro ADME
Procedure: Homogenized fresh human stools (500 mg) were transferred into sterile vials to which 5 mL of sterilized chopped meat-glucose medium (Scott Lab., Fiskville, R.I.) was added. BA were then added at a final concentration of 0.05 mM. Vials were incubated at 37 C; then, at 0, 4, 8, 16, 20, 24, and 72 h after the addition of the BA, the reaction was stopped with 150 L of 30% KOH. The samples were centrifuged at 3500 rpm for 10 min; from the supernatant the BA were isolated by C-18 solid-phase extraction and analyzed by TLC and HPLC-ES-MS/MS. Thin-layer chromatography (TLC), utilizing silica gel 0.25 m thickness plates (Merck, Darmstat, Germany), was employed as the first screening test. The solvent system used for the separation of conjugated BA was composed of propionic acid/isoamyl acetate/water/N-propanol (3:4:1:2, v/v/v/v; solvent I), and that of the unconjugated BA was acetic acid/carbon tetrachloride/isopropyl ether/isoamyl acetate/water/N-propanol/benzene (1:4:6:8:2:2, v/v/v/v/v/v; solvent II).

[4] = Hepatic metabolism and biliary secretion in bile fistula rat after iv infusion; assay type: in vivo; settings: for Main form / hepatic metabolite secreted in bile: at the administered dose
Procedure: The BA were administered by infusion to bile fistula rat and bile collected at 15 min intervals for 7 hours. The bile flow was measured and bile analyzed using HPLC-ES-MS-MS for the identification of the rate of biliary secretion and to evaluate the major hepatic metabolites.
Bile acids and their metabolites were determined by a liquid chromatography-tandem mass spectrometry (HPLC-MS/MS) method using electrospray (ESI) source in negative ionization mode. Rat bile samples were brought to room temperature and diluted 1:100 v/v-1:1000 v/v with 15 mM ammonium acetate buffer (pH=5). Then, 10 μL were injected into the chromatographic column. Liquid chromatography was performed using a Waters Alliance 2695 separation module coupled with autosampler. Bile acids were analyzed using a Synergi Hydro-RP C18 column (150×2.0 mm i.d., 4 μm particle size), protected by a SecurityGuard ODS 4×2.0 mm i.d. precolumn, both supplied from Phenomenex. Bile acids were separated in elution gradient using 15 mM ammonium acetate buffer (pH=5.00) as mobile phase A and acetonitrile as mobile phase B. Mobile phase B was increased from 30% to 64% in 12 min, then to 70% in 8 min, and finally brought to 100% in 10 min and held constant for 1 min. […] The column effluent was analysed by ESI-MS/MS using a Quattro-LC (Micromass) triple quadruple mass spectrometer operating in Multiple Reaction Monitoring (MRM) acquisition mode. MassLynx software version 4.0 was used for data acquisition and processing.

[5] = Water solubility of protonated bile acids; settings: 0.1 M HCl, pH 1, simulated gastric fluid, thermodynamic from solid
Procedure: (§2) Solid BA were suspended in 5 ml of 0.1 M HCl. The saturated solutions, after incubation for 1 week, were filtered on a Millipore filter (0.22 μm) and the concentration of BA was measured by HPLC-ESI-MS/MS using C18 column (150 mm×2 mm i.d., 4 μm) and mobile phases of water containing 15 mM acetic acid pH 5 and acetonitrile. The flow rate was 150 μl/min. The mass spectrometry acquisition was performed in the multiple reaction monitoring mode using the ESI source in negative ionization. Water solubility was expressed as μmol/liter

ANIT-induced cholestasis [6] = settings: previous unpublished studies by Fiorucci et al.; cited from earlier work
[7] = tested on: pancreatic esterases (pancreatin); assay: Metabolic stability in simulated duodenal/pancreatic fluid (USP); assay type: in vitro ADME, porcine
Procedure: Simulated pancreatic fluid was prepared by dissolving 10 g/L Pancreatin (Sigma P8096: pancreatin from porcine pancreas, activity 1×USP specifications) in 0.05M phosphate buffer, pH=7.2±0.1. […] After incubation, a 2-mL aliquot of each solution was added with 2 mL of 0.1M NaOH and subjected to bile acids extraction by SPE and analysis by thin-layer chromatography and mass spectrometry as described above.

[8] = values from literature, cited from earlier work; for CMC NaCl 0.15M: in NaCl 0.15 M; for CMC H2O: in water
[9] = value from literature; cited from earlier work
[10] = pH 1
Procedure: as §2

[11] = pH 8
Procedure: as §1

ANIT-induced cholestasis [12] = assay: ANIT-induced cholestasis in rat; assay type: in vivo, Wistar rats; settings: ANIT treated rats, ammonium salt
Procedure: Wistar Rats studies were approved by the Animal Study Committee of the University of Perugia. Male Wistar rats (200-250 g) were obtained from Charles River Breeding Laboratories (Portage, Mich.) and maintained on standard laboratory rat chow on a 12-h light/dark cycle. […] Control rats (N=4) were administered vehicle (physiologic solution I.P.). At the end of the study, rats were sacrificed under anaesthesia with sodium pentobarbital (50 mg/kg i.p.) and terminally bled via cardiac puncture; the liver was removed and weighted for examination and blood samples were taken. Rat genes expression was evaluated by quantitative real-time polymerase chain reaction (RT-PCR) as previously described herein.

[13] = tested on: FXR related genes in liver; assay: FXR target gene expression in liver of intact mice (Real-Time PCR); assay type: in vivo, Balb/c mice; settings: 4 days
Source text: Six- to eight-week old female Balb/c mice were obtained from Charles River (Charles River Laboratories, Inc., Wilmington, Mass.). […] All procedures in this study were approved by the Animal Study Committees of the University of Perugia (Italy) according to governmental guidelines for animal care. […] At the end of the experiment mice were sacrificed and liver was removed to perform Real Time PCR analysis of FXR target genes.

FXR = molecular target: T2, FXR (Homo sapiens, UniProt Q96RI1); assay: Luciferase transactivation assay in transfected HepG2 cells; assay type: cell-based; settings: ammonium salt
T2 construct: expressed in transfected cells; host or cells: HepG2
T2 sequence (Q96RI1 1-486): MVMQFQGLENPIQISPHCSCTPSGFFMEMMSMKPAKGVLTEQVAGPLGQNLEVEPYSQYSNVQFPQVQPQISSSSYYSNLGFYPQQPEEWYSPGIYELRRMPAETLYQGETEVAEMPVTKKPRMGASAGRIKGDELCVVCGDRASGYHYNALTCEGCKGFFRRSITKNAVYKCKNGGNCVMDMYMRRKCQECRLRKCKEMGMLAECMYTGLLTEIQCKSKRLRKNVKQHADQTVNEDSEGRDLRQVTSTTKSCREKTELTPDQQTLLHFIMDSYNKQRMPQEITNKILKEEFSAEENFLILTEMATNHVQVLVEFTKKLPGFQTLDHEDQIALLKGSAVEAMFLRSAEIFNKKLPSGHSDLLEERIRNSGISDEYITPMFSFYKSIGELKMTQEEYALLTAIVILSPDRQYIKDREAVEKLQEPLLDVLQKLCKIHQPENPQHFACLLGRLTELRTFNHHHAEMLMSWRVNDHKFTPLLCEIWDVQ
T2 sequence (P19793 1-462 partner): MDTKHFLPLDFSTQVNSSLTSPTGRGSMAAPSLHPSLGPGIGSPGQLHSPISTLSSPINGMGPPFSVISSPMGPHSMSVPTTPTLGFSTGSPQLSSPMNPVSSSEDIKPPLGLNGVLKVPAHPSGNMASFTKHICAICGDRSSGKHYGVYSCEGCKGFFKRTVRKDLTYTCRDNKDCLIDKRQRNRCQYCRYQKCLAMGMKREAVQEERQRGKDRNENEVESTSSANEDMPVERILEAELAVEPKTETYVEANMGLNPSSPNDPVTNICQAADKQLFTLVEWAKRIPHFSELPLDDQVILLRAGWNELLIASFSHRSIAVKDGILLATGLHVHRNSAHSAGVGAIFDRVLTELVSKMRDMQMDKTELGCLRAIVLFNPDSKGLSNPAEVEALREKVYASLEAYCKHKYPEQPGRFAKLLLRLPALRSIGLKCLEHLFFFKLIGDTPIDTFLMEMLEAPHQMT
Procedure: Briefly, for luciferase assay, HepG2 cells were cultured in E-MEM supplemented with 1% penicillin/streptomycin, 1% L-glutamine and 10% fetal bovine serum (high glucose) (CELBIO). Cells were grown at 37° C. in 5% CO2. All the transfections were making using a calcium phosphate coprecipitation method in the presence of 25 μM chloroquine as inhibitor for DNA degradation. Transient transfections were performed using 500 ng of reporter vector phsp27-TKLUC, 200 ng pCMV-βgal, as internal control for transfection efficiency, and 50 ng of each receptor expression plasmid pSG5-FXR, pSG5-RXR. The pGEM vector was added to normalize the amounts of DNA transfected in each assay (2.5 μg). The transfection efficiency was evaluated by β-gal expression, obtained by co-transfecting the cells with pCMV-β-gal plasmid. […] Control cultures received vehicle (0.1% DMSO) alone. Cells were lysed in 100 μl diluted reporter lysis buffer (Promega), and 0.2 μl cellular lisate was assayed for luciferase activity using Luciferase Assay System (Promega). Luminescence was measured using an automated luminometer. Luciferase activities were normalized for transfection efficiencies by dividing the relative light units by β-galactosidase activity.

[14] = 5 mg/kg intraperitoneal, ammonium salt

C[C@H](CCC(=O)O)[C@H]1CC[C@H]2[C@@H]3[C@H](O)C[C@@H]4C[C@H](O)CC[C@]4(C)[C@H]3CC[C@]12C [CDCA, chenodeoxycholic acid]
CMpH (critical micellar pH) (Critical micellar pH): 7.6 | % Binding (albumin) (bovine serum albumin): 93% | LogPA− (1-octanol-water partition coefficient, ionized species) [1]: 2.2 | ST50: Surface Tension of 50 mM aqueous solution [2]: 48.5 Dyne/cm | STCMC: Surface Tension at CMC in water [2]: 55.6 Dyne/cm | CMC NaCl 0.15M [2]: 3.0 mM | CMC H2O [2]: 7.5 mM | Half-life time ([3]; human stool cultures): one | Metabolism (7-dehydroxylation to lithocholic acid) ([3]; human stool cultures, after 8 hours of incubation): almost completely metabolized

CC[C@H]1[C@@H](O)[C@@H]2[C@H](CC[C@]3(C)[C@@H]([C@H](C)CCC(=O)O)CC[C@@H]23)[C@@]2(C)CC[C@@H](O)C[C@@H]12 [INT-747, 3α,7α-dihydroxy-6α-ethyl-5β-cholan-24-oic acid]
CMpH (critical micellar pH) (Critical micellar pH): 7.6 | CMpH (critical micellar pH) (Critical micellar pH; listed as UPF 747): 7.7 | % Binding (albumin) (bovine serum albumin): 96% | Main form / hepatic metabolite secreted in bile [4]: taurine conjugate | LogPA− (1-octanol-water partition coefficient, ionized species) [1]: 2.5 | ST50: Surface Tension of 50 mM aqueous solution [2]: 43.2 Dyne/cm | STCMC: Surface Tension at CMC in water [2]: 48.8 Dyne/cm | CMC NaCl 0.15M [2]: 2.9 mM | Concentration at which a gel phase forms ([2]; in the presence of Na+ 0.15 M): > 60000 µM | CMC H2O [2]: 4.5 mM | solubility at 1 week [5]: 9 µM (≈ 3.79 µg/mL) | Reduction of liver injury in ANIT model (ANIT-induced cholestasis [6]): not effective | Stability in human stool cultures [3]: very stable

CC[C@H]1[C@@H](O)C2C3CCC(C(C)CCOS(=O)(=O)[O-])[C@@]3(C)CCC2[C@@]2(C)CC[C@@H](O)C[C@@H]12.[Na+] (stereo partly drawn) [INT-1103, 3α,7α,23-trihydroxy-6α-ethyl-24-nor-5β-cholan-23-sulphate sodium salt]
Stability in simulated pancreatic fluid ([7]; 50 μM, 37° C., up to 240 min): very stable | Hydrolysis of ester bond (sulphate) by pancreatic esterases ([7]; simulated pancreatic fluid): not hydrolyzed | % Binding (albumin) (bovine serum albumin): 85% | Main form / hepatic metabolite secreted in bile [4]: 3-glucoronide | Amount of administered dose secreted into bile ([4]; iv infusion 3 umol/Kg/min, bile collected 7 hours): 30-40% | LogPA− (1-octanol-water partition coefficient, ionized species) [1]: 2.0 | ST50: Surface Tension of 50 mM aqueous solution [2]: 43.3 Dyne/cm | STCMC: Surface Tension at CMC in water [2]: 47.9 Dyne/cm | CMC NaCl 0.15M [2]: 1.3 mM | CMC H2O [2]: 3.9 mM | Stability in human stool cultures [3]: very stable

C[C@H](CCC(=O)NCCS(=O)(=O)O)[C@H]1CC[C@H]2[C@@H]3[C@H](O)C[C@@H]4C[C@H](O)CC[C@]4(C)[C@H]3CC[C@]12C [TCDCA]
CMC NaCl 0.15M [8]: 3.0* mM | CMC H2O [8]: 7.0* mM | LogPA− (1-octanol-water partition coefficient, ionized species) [1]: 0.9

C[C@H](CCC(=O)NCCS(=O)(=O)O)[C@H]1CC[C@H]2[C@@H]3[C@@H](O)C[C@@H]4C[C@H](O)CC[C@]4(C)[C@H]3CC[C@]12C [TUDCA]
% Binding (albumin) (bovine serum albumin): 67% | CMC NaCl 0.15M [8]: 2.2* mM | CMC H2O [8]: 8.0* mM | LogPA− (1-octanol-water partition coefficient, ionized species) [9]: 1.0*

C[C@H](CCC(=O)O)[C@H]1CC[C@H]2[C@@H]3[C@@H](O)C[C@@H]4C[C@H](O)CC[C@]4(C)[C@H]3CC[C@]12C [UDCA]
CMpH (critical micellar pH) (Critical micellar pH): 8.4 | % Binding (albumin) (bovine serum albumin): 94% | Water Solubility [10]: 7.5 µM | ST50: Surface Tension of 50 mM aqueous solution [2]: 50.4 Dyne/cm | STCMC: Surface Tension at CMC in water [2]: 63.0 Dyne/cm | CMC NaCl 0.15M [2]: 6.0 mM | CMC H2O [2]: 26 mM | LogPA− (1-octanol-water partition coefficient, ionized species) [11]: 2.2

CC[C@H]1[C@@H](O)C2C3CCC(C(C)CCOS(=O)(=O)O)[C@@]3(C)CCC2[C@@]2(C)CC[C@@H](O)C[C@@H]12 (stereo partly drawn) [UPF-987, 3α,7α,23-trihydroxy-6α-ethyl-24-nor-5β-cholan-23-sulphate triethyl ammonium salt]
Liver injury / cholestasis (plasma AST, γGT, alkaline phosphatase, cholesterol) (ANIT-induced cholestasis [12]; UPF-987 5 and 3 mg/kg daily): attenuates liver injury; also recorded: reduces ANIT | Liver expression of NTCP, CYP7A1 and BSEP (ANIT-induced cholestasis [12]): modulates liver | Liver BSEP expression [13, 14]: potent induction; also recorded: induces liver | Liver SHP expression [13, 14]: potent induction; also recorded: induces liver | Downregulation of liver Cyp7a1 ([13]; 5 mg/kg): 60-70% | Liver FAS mRNA expression ([13]; 5 mg/kg, ammonium salt): reduced | inhibition at 5 mg/kg ([13]; Mus musculus, 96 h, read-out: Inhibition of liver SREBP-1c): 90% | Transactivation of FXR (FXR): transactivates FXR
